Here are results for 13 compounds from US20250296960A1, “PEPTIDE COMPOSITIONS AND METHODS OF USE THEREOF” (priority 2022, published 2025).

Numbered stars: 1 amine (or outer) side, 2 acyl side, 3 side chain; on linkers, the order of the positions; unused ones are H or OH. Square brackets hold non-standard residues; d marks the D form. Side chains are listed from the residue outwards. Ends that are not written are not given here. * marks the point of attachment. C18 = C18 fatty acid (C16-C22 fatty acids conjugated via γGlu/8-amino-3,6-dioxaoctanoic acid spacers); C20 diacid = O=C(O)CCCCCCCCCCCCCCCCCCC(=O)*; γGlu = O=C(O)[C@H](CCC(=O)[*:2])N[*:1]; αMeL = CC(C)C[C@](C)(N)C(=O)O; AEEA = NCCOCCOCC(=O)O; Aib = CC(C)(N)C(=O)O

Assay [1] can be described thus: Body weight loss in normal C57BL/6 mice, subcutaneous dosing. The settings on record: for Weight loss (%): normal mice. It counts as in vivo. How it is done:
To confirm the therapeutic effect of the peptide in vivo, polypeptides were administered to mice to measure changes in body weight. […] The peptides were delivered at 0.02% polysorbate 80 (PS80) in PBS and dosing volume was 10 mL/kg. Body weight was monitored 6 h, QD.
To confirm the therapeutic effect of the peptide in obesity, diabetes, or NASH, polypeptides were administered to mice to measure changes in food intake, blood glucose and body weight. […] In addition, a NASH animal model was prepared by feeding a high fat, high fructose, high cholesterol diet to normal C57BL/6 mice (approximately 6 weeks old) for approximately 21 weeks, and increasing the body weights of the mice to approximately 50 g on average. Thereafter, polypeptides were administered by subcutaneous injection at dose of 20 nmol/kg once every other day for 2 weeks. Body weight and food intake were measured once every other day given points of time. After 2 weeks of treatment period, mice were sacrificed, then liver weight, hepatic triglyceride, and NASH related biomarkers were measured.
DD01 administered at 40 nmol/kg, s.c. Q2D as positive control was delivered at 0.02% PS80 in PBS and dosing volume was 10 mL/kg. Body weight was monitored QD for 4 days.
The peptides were delivered at 0.02% PS80 in PBS and dosing volume was 10 mL/kg. Food intake, blood glucose, and body weight changes were monitored QD.

A further assay concerns the target T1, human GLP-1R (Homo sapiens, UniProt P43220).
T1 construct: host or cells: CHO-K1
Put plainly: cAMP assay (HitHunter cAMP) in GLP-1R-expressing CHO-K1 cells (GLP-1R+ cells). It counts as cell-based. Here is the method:
(§1) The cells were seeded in a 96-well plate at 7×10^3 cells/well using cell plate reagent and incubated the cells overnight at 37° C. and 5% CO2. To perform the cAMP detection assay, cell plating reagent were replaced with the cAMP Assay buffer. Each of the wells was then treated with the diluted peptide and incubated for 30 minutes under conditions of a temperature of 37° C. in a CO2 incubator.
(§2) After the incubation, cAMP Antibody reagent and Working cAMP detection solution to all wells. Incubate the plate for 1 hour at Room temperature in the dark. Then, cAMP Solution A was added and incubated for 3 hours at room temperature in the dark. Subsequently, the luminescence was measured using the microplate reader device.

The next assay addresses T2, human GCGR (Homo sapiens, UniProt P47871).
T2 construct: host or cells: CHO-K1
The assay can be described thus: cAMP assay (HitHunter cAMP) in GCGR-expressing CHO-K1 cells (GCGR+ cells). Format: cell-based. How it is done: as §1, §2
A general note: Changes in cAMP serve as a functional read-out for many G protein-coupled receptors.

The target in the next assay is T3, human GIPR (Homo sapiens, UniProt P48546).
T3 construct: host or cells: CHO-K1
T3 sequence (P48546 22-466): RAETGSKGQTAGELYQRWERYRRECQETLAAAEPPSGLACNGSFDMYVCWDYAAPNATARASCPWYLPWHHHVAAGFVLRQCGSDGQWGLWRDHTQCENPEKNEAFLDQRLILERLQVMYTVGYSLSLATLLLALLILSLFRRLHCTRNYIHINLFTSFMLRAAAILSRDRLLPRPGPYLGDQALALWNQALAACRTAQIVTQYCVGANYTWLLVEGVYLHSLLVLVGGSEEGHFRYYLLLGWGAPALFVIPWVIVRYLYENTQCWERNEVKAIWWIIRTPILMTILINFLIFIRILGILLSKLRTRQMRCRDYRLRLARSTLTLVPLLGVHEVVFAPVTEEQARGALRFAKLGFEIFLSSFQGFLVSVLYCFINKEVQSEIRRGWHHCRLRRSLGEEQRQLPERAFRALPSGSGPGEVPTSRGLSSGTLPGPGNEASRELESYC
Put plainly: cAMP assay (HitHunter cAMP) in GIPR-expressing CHO-K1 cells (GIPR+ cells). Format: cell-based. How it is done: as §1, §2

Where [2] appears, read: 20 nmol/kg QD, after 48 or 72 hours.
Where [3] appears, read: 20 nmol/kg QD, Weight loss at 48 hr.
[4] abbreviates: Table 13, EC50 of STD peptide over EC50 of peptide.
The mark [5] stands for this setting: Table 14, normalised to activity at GLP-1R.

T1 sequence (P43220 24-463): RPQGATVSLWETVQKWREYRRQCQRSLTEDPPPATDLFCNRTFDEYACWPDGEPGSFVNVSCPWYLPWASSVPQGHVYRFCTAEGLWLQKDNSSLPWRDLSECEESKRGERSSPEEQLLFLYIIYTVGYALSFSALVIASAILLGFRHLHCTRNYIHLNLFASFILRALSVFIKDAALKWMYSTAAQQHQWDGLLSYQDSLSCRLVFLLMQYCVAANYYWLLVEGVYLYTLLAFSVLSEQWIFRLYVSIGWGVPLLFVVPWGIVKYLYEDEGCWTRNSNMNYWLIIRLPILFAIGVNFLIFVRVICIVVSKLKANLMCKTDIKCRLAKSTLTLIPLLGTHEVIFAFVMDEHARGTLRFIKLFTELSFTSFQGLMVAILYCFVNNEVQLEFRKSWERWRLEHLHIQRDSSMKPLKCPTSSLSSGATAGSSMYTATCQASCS
T2 sequence (P47871 26-477): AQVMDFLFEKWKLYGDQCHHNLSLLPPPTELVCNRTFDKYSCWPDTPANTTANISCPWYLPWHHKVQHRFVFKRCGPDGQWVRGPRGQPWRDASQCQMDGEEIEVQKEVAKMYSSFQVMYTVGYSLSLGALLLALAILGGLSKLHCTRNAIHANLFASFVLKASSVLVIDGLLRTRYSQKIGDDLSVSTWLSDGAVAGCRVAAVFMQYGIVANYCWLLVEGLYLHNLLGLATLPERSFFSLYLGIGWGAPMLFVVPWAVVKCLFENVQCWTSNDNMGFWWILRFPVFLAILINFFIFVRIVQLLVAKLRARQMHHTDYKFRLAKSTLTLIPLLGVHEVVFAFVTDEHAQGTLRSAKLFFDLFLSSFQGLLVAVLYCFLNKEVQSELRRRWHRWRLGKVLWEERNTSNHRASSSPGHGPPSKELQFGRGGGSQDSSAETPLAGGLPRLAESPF

Turning to “5-4A: Peptide No. 5-4 lipidated via conjugation to C-terminal cysteine (type A) (H[Aib]QGTFTSDYSKYLDYMMQRDFVQWLIEGGPSSGAPPPSC([AEEA-AEEA-γGlu-C18])-NH2)”, in assay [1] (setting [2]), the “Weight loss (%)” value stood at 8.3 ± 0.9%.

In the case of “12-5A: Peptide No. 12-5 lipidated via conjugation to C-terminal cysteine (type A) (H[Aib]QGTFTSDWSKYLDQQMQQDFVDWLLNGGPSSGAPPPSC([AEEA-AEEA-γGlu-C18])-NH2)”, the “Weight loss (%)” value in assay [1] (setting [2]) is 5.4 ± 0.9%.

For the compound “Y-Aib-QGTFTSDYSI-αMeL-LDKK((2-[2-(2-amino-ethoxy)-ethoxy]-acetyl)-(γGlu)-CO-(CH2)18-CO2H)AQ-Aib-AFIEYLLE-Aib-GPSS-Aib-APPPS-NH2 (Y[Aib]QGTFTSDYSI[αMeL]LDKK([AEEA-γGlu-C20 diacid])AQ[Aib]AFIEYLLE[Aib]GPSS[Aib]APPPS-NH2; N-terminus assumed; SMILES CC[C@H](C)[C@H](NC(=O)[C@H](Cc1ccccc1)NC(=O)[C@H](C)NC(=O)C(C)(C)NC(=O)[C@H](CCC(N)=O)NC(=O)[C@H](C)NC(=O)[C@H](CCCCNC(=O)COCCOCCNC(=O)CC[C@H](NC(=O)CCCCCCCCCCCCCCCCCCC(=O)O)C(=O)O)NC(=O)[C@H](CCCCN)NC(=O)[C@H](CC(=O)O)NC(=O)[C@H](CC(C)C)NC(=O)[C@](C)(CC(C)C)NC(=O)[C@@H](NC(=O)[C@H](CO)NC(=O)[C@H](Cc1ccc(O)cc1)NC(=O)[C@H](CC(=O)O)NC(=O)[C@H](CO)NC(=O)[C@@H](NC(=O)[C@H](Cc1ccccc1)NC(=O)[C@@H](NC(=O)CNC(=O)[C@H](CCC(N)=O)NC(=O)C(C)(C)NC(=O)[C@@H](N)Cc1ccc(O)cc1)[C@@H](C)O)[C@@H](C)O)[C@@H](C)CC)C(=O)N[C@@H](CCC(=O)O)C(=O)N[C@@H](Cc1ccc(O)cc1)C(=O)N[C@@H](CC(C)C)C(=O)N[C@@H](CC(C)C)C(=O)N[C@@H](CCC(=O)O)C(=O)NC(C)(C)C(=O)NCC(=O)N1CCC[C@H]1C(=O)N[C@@H](CO)C(=O)N[C@@H](CO)C(=O)NC(C)(C)C(=O)N[C@@H](C)C(=O)N1CCC[C@H]1C(=O)N1CCC[C@H]1C(=O)N1CCC[C@H]1C(=O)N[C@@H](CO)C(N)=O) [EL.EX.14, reference compound]”, the “Weight loss (%)” value in assay [1] (10 nmol/kg QD, after 48 or 72 hours) was 11.0 ± 2.4%.

For “HAibQGT FTSDY SK*LLD YMMQRDFVQWLLEGGPSSGAPPPS (H[Aib]QGTFTSDYSK([AEEA-AEEA-γGlu-C18])LLDYMMQRDFVQWLLEGGPSSGAPPPS-NH2) [5-5D, K* = lysine lipidated with 2OEG-γGlu-C18]”, the “Weight loss (%)” value in assay [1] (setting [3]) came to 10.3 ± 1.3%.

Turning to `CC[C@H](C)[C@H](NC(=O)[C@H](CC(C)C)NC(=O)[C@H](Cc1c[nH]c2ccccc12)NC(=O)[C@H](CCC(N)=O)NC(=O)[C@@H](NC(=O)[C@H](Cc1ccccc1)NC(=O)[C@H](CC(=O)O)NC(=O)[C@H](CCCNC(=N)N)NC(=O)[C@H](C)NC(=O)[C@H](CCSC)NC(=O)[C@H](CCSC)NC(=O)[C@H](Cc1ccc(O)cc1)NC(=O)[C@H](CC(=O)O)NC(=O)[C@H](CC(C)C)NC(=O)[C@H](Cc1ccc(O)cc1)NC(=O)[C@H](CCCCNC(=O)CCCC[C@@H]1SC[C@@H]2NC(=O)N[C@@H]21)NC(=O)[C@H](CO)NC(=O)[C@H](Cc1ccc(O)cc1)NC(=O)[C@H](CC(=O)O)NC(=O)[C@H](CO)NC(=O)[C@@H](NC(=O)[C@H](Cc1ccccc1)NC(=O)[C@@H](NC(=O)CNC(=O)[C@H](CCC(N)=O)NC(=O)C(C)(C)NC(=O)[C@@H](N)Cc1c[nH]cn1)[C@@H](C)O)[C@@H](C)O)C(C)C)C(=O)N[C@@H](CCC(=O)O)C(=O)NCC(=O)NCC(=O)N1CCC[C@H]1C(=O)N[C@@H](CO)C(=O)N[C@@H](CO)C(=O)NCC(=O)N[C@@H](C)C(=O)N1CCC[C@H]1C(=O)N1CCC[C@H]1C(=O)N1CCC[C@H]1C(=O)N[C@@H](CO)C(=O)N[C@@H](CSC1CC(=O)N(CCNC(=O)COCCOCCNC(=O)COCCOCCNC(=O)CC[C@H](NC(=O)CCCCCCCCCCCCCCCCC(=O)O)C(=O)O)C1=O)C(N)=O` (stereo partly shown) [5B, HAibQGT FTSDY SB*YLD YMMARDFVQWLIEGGPSSGAPPPSC*], the “Activity relative to STD peptide (%), GLP-1” value on human GLP-1R (setting [4]) was 87%. Also, the “Activity relative to GLP-1 (%), GLP-1” value at human GLP-1R (setting [5]) is on record as 100%. Moreover, the “Activity relative to STD peptide (%), Glucagon” value on human GCGR (setting [4]) stood at 5%. At human GCGR (setting [5]), the “Activity relative to GLP-1 (%), Glucagon” value was 6%. For the same compound, the “Activity relative to STD peptide (%), GIP” value on human GIPR (setting [4]) was determined as 2%. The “Activity relative to GLP-1 (%), GIP” value at human GIPR (setting [5]) was 2%.

“YAibQGT FTSDY SKYLD YK*MAR DFVQW LIEGG PSSGA PPPS (Y[Aib]QGTFTSDYSKYLDYK([AEEA-AEEA-γGlu-C18])MARDFVQWLIEGGPSSGAPPPS-NH2) [5-1F, K* = lysine lipidated with 2OEG-γGlu-C18]”: the “Weight loss (%)” value in assay [1] (setting [3]) came out at 21.9 ± 2.5%.

In the case of “5-3A: Peptide No. 5-3 lipidated via conjugation to C-terminal cysteine (type A) (Y[Aib]QGTFTSDYSKLLDYMMQRDFVQWLLEGGPSSGAPPPSC([AEEA-AEEA-γGlu-C18])-NH2)”, the “body weight loss effect, in words” value in assay [1] (Example 5, 20 nmol/kg s.c. QD, 4 days) is recorded as “least effect”. In addition, the “Weight loss (%)” value in assay [1] (setting [2]) is recorded as 5.5 ± 1.6%.

As for “12-1A: Peptide No. 12-1 lipidated via conjugation to C-terminal cysteine (type A) (Y[Aib]QGTFTSDWSKYLDQQMAQDFVDWLINGGPSSGAPPPSC([AEEA-AEEA-γGlu-C18])-NH2)”, the “Weight loss (%)” value in assay [1] (setting [2]) is 9.0 ± 2.2%.

With “12-3A: Peptide No. 12-3 lipidated via conjugation to C-terminal cysteine (type A) (Y[Aib]QGTFTSDWSKYLDQQMQQDFVDWLLNGGPSSGAPPPSC([AEEA-AEEA-γGlu-C18])-NH2)”, in assay [1] (setting [2]), the “Weight loss (%)” value came to 0.2 ± 1.8%.

Take “HAibQGT FTSDY SK*YLD YMMQRDFVQWLIEGGPSSGAPPPS (H[Aib]QGTFTSDYSK([AEEA-AEEA-γGlu-C18])YLDYMMQRDFVQWLIEGGPSSGAPPPS-NH2) [5-4D, K* = lysine lipidated with 2OEG-γGlu-C18]”: in assay [1] (setting [3]), the “Weight loss (%)” value was found to be 7.2 ± 0.9%.

As for “12-2A: Peptide No. 12-2 lipidated via conjugation to C-terminal cysteine (type A) (Y[Aib]QGTFTSDWSKYLDQQMQQDFVDWLINGGPSSGAPPPSC([AEEA-AEEA-γGlu-C18])-NH2)”, the “Weight loss (%)” value in assay [1] (setting [2]) was found to be 2.0 ± 0.9%.

For the compound “12-7A: Peptide No. 12-7 lipidated via conjugation to C-terminal cysteine (type A) (H[Aib]EGTFTSDWSKYLDQQMAQDFVDWLINGGPSSGAPPPSC([AEEA-AEEA-γGlu-C18])-NH2)”, the “Weight loss (%)” value in assay [1] (setting [2]) is on record as 9.5 ± 3.0%.

For the compound “12-4A: Peptide No. 12-4 lipidated via conjugation to C-terminal cysteine (type A) (H[Aib]QGTFTSDWSKYLDQQMQQDFVDWLINGGPSSGAPPPSC([AEEA-AEEA-γGlu-C18])-NH2)”, the “Weight loss (%)” value in assay [1] (setting [2]) came to 4.3 ± 0.9%.
